Results: US20260256925A1, “INDAZOLE DERIVATIVES AS ESTROGEN RECEPTOR DEGRADERS” (REGENTS OF THE UNIVERSITY OF MICHIGAN, priority 2022, published 2026)

Legend:
Assay type in all cases: cell-based
ER [1] = molecular target: T1, ER (Homo sapiens, UniProt P03372); assay: Western blot analysis (compounds B1-B126); conditions: ER degradation, read-out: Traditional Western Degradation potency (DC50)
T1 construct: endogenous in cells; probably T47D or MCF-7
T1 sequence (P03372 1-595): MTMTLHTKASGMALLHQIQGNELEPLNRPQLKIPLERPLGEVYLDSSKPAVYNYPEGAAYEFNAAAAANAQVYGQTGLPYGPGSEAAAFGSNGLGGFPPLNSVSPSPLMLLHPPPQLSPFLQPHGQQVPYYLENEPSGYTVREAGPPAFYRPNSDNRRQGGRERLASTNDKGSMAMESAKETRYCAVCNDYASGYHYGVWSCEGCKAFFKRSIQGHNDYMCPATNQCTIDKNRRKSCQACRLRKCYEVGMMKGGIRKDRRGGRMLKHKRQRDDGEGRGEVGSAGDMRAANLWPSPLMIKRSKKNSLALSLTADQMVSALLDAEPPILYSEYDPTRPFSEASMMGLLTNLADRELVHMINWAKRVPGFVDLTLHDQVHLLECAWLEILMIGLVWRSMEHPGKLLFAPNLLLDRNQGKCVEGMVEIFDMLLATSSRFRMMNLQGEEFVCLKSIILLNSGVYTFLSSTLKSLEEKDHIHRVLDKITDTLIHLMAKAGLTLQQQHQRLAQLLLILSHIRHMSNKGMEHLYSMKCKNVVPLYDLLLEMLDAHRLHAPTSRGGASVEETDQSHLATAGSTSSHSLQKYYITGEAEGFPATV
Protocol: Western Blot Analysis. The cells that are treated with the compounds are lysed in Radioimmunoprecipitation Assay Protein Lysis and Extraction Buffer (e.g., 25 mmol/L Tris.HCl, pH 7.6, 150 mmol/L NaCl, 1% Nonidet P-40, 1% sodium deoxycholate, and 0.1% sodium dodecyl sulfate) containing proteinase inhibitor cocktail. Equal amounts of total protein are electrophoresed through 10% SDS-polyacrylamide gels after determination of protein concentration by BCA assay. The separated protein bands are transferred onto PVDF membranes and blotted against different antibodies. The blots are scanned, and the band intensities are quantified (e.g., by using GelQuant.NET software provided by biochemlabsolutions.com). The relative mean intensity of target proteins is expressed after normalization to the intensity of glyceraldehyde-3-phosphate dehydrogenase bands.
Western Blot Analysis. Western blot analysis was performed essentially as described previously. The cells treated with indicated compounds were lysed in Radioimmunoprecipitation Assay Protein Lysis and Extraction Buffer (25 mmol/L Tris.HCl, pH 7.6, 150 mmol/L NaCl, 1% Nonidet P-40, 1% sodium deoxycholate, and 0.1% sodium dodecyl sulfate) containing proteinase inhibitor cocktail (Roche Diagnostics, Mannheim, Germany). Equal amounts of total protein were electrophoresed through 10% SDS-polyacrylamide gels after determination of protein concentration by BCA assay (Fisher Scientific, Pittsburgh, PA). The separated protein bands were transferred onto PVDF membranes (GE Healthcare Life Sciences, Marlborough, MA) and blotted against different antibodies, as indicated. The blots were scanned, and the band intensities were quantified using GelQuant.NET software provided by biochemlabsolutions.com. The relative mean intensity of target proteins was expressed after normalization to the intensity of glyceraldehyde-3-phosphate dehydrogenase bands.

ER [2] = molecular target: T1, ER; assay: In-cell Western (ICW) ER degradation assay in MCF-7 cells; conditions: 16 hrs
Protocol: (§1) ERa degradative activity of compounds can be assessed in MCF-7 and T47D Cells. MCF-7 and T47D cell are seeded and are subsequently treated with the compounds at certain concentrations (e.g., 0.02 to 300 nM). DMSO can be used as vehicle control. Cells are fixed and are blocked with Intercept (PBS) Blocking Buffer (e.g., Li—COR, Odyssey Blocking Buffer), and are stained with ER (e.g., 1:500, Cell signaling) primary antibody for overnight at cold room. Secondary Antibody (e.g., IRDye 800CW Goat anti-Rabbit IgG) and CellTag 700 Stain are added in Intercept (PBS) Blocking Buffer. Finally, cell plate is placed in incubator to dry. Image and signal are captured on Odyssey® DLx Imaging System.
(§2) In-cell Western (ICW) assays in MCF-7 and T47D cell lines.
(§3) Procedures for ICW assays
(§4) In vitro Assay: MCF-7 and T47D ICW assay
(§5) Day 3: After 16 hrs of compounds treatment, cells were fixed by 4% PFA and permeabilized with elution buffer (0.1% Triton X-100 in 1% PBS Solution). Subsequently, cells were blocked with Intercept (PBS) Blocking Buffer (Li—COR, Odyssey Blocking Buffer), and were stained with ER (1:500, Cell signaling) primary antibody for overnight at cold room.
(§6) Day 4: Remove the buffer, add IRDye 800CW Goat anti-Rabbit IgG Secondary Antibody (1:2000) and CellTag 700 Stain (1:500) in Intercept (PBS) Blocking Buffer. Finally, cell plate is placed in incubator to dry. Image and signal were captured on Odyssey® DLx Imaging System.

ER [3] = molecular target: T1, ER; assay: In-cell Western (ICW) ER degradation assay in T47D cells; conditions: T47D cells, 16 hrs
Protocol: as §1, §2, §3, §4, §5, §6

Row | SMILES | DC50 (ER [1]) [nM] | other results
1 | C[C@@H]1Cc2c(ccc3[nH]ncc23)[C@@H](c2c(F)cc(N3CCC4(CCN(C(=O)CN5Cc6cc7c(cc6C5)C(=O)N(C5CCC(=O)NC5=O)C7=O)CC4)C3)cc2F)N1CC(F)F (stereo partly drawn) [Compound B12, 6-(2-(2-(4-((6S,8R)-7-(2,2-difluoroethyl)-8-methyl-6,7,8,9-tetrahydro-3H-pyrazolo[4,3-f]isoquinolin-6-yl)-3,5-difluorophenyl)-2,8-diazaspiro[4.5]decan-8-yl)-2-oxoethyl)-2-(2,6-dioxopiperidin-3-yl)-6,7-dihydropyrrolo[3,4-f]isoindole-1,3(2H,5H)-dione] | 10 to 100 | 
2 | C[C@@H]1Cc2c(ccc3[nH]ncc23)[C@@H](c2c(F)cc(N3CCC(C(=O)N4C5CCC4CC(N4Cc6cc7c(cc6C4)C(=O)N(C4CCC(=O)NC4=O)C7=O)C5)CC3)cc2F)N1CC(F)F (stereo partly drawn) [Compound B103, 6-(8-(1-(4-((6S,8R)-7-(2,2-difluoroethyl)-8-methyl-6,7,8,9-tetrahydro-3H-pyrazolo[4,3-f]isoquinolin-6-yl)-3,5-difluorophenyl)piperidine-4-carbonyl)-8-azabicyclo [3.2.1]octan-3-yl)-2-(2,6-dioxopiperidin-3-yl)-6,7-dihydropyrrolo [3,4-f]isoindole-1,3(2H,5H)-dione] | > 100 | 
3 | C[C@@H]1Cc2c(ccc3[nH]ncc23)[C@@H](c2c(F)cc(N3CCC(CN4CC5(Cc6cc7c(cc6C5)C(=O)N(C5CCC(=O)NC5=O)C7=O)C4)CC3)cc2F)N1CC(F)F (stereo partly drawn) [Compound B14, 1-((1-(4-((6S,8R)-7-(2,2-difluoroethyl)-8-methyl-6,7,8,9-tetrahydro-3H-pyrazolo[4,3-f]isoquinolin-6-yl)-3,5-difluorophenyl)piperidin-4-yl)methyl)-2′-(2,6-dioxopiperidin-3-yl)-5′,7′-dihydro-1′H-spiro[azetidine-3,6′-cyclopenta[f]isoindole]-1′,3′(2′H)-dione] | > 100 | 
4 | C[C@@H]1Cc2c(ccc3[nH]ncc23)[C@@H](c2c(F)cc(C3CCN(C(=O)[C@H]4CC[C@H](N5Cc6cc7c(cc6C5)C(=O)N(C5CCC(=O)NC5=O)C7=O)CC4)CC3)cc2F)N1CC(F)F (stereo partly drawn) [Compound B7, 6-((1S,4r)-4-(4-(4-((6S,8R)-7-(2,2-difluoroethyl)-8-methyl-6,7,8,9-tetrahydro-3H-pyrazolo[4,3-f]isoquinolin-6-yl)-3,5-difluorophenyl)piperidine-1-carbonyl)cyclohexyl)-2-(2,6-dioxopiperidin-3-yl)-6,7-dihydropyrrolo[3,4-f]isoindole-1,3(2H,5H)-dione] | > 100 | 
5 | C[C@@H]1Cc2c(ccc3[nH]ncc23)[C@@H](c2c(F)cc(N3CCC(CN4CCN(c5ccc6c(c5)C(=O)N(C5CCC(=O)NC5=O)C6=O)CC4)CC3)cc2F)N1CC(F)F (stereo partly drawn) [Compound B65, 5-(4-((1-(4-((6S,8R)-7-(2,2-difluoroethyl)-8-methyl-6,7,8,9-tetrahydro-3H-pyrazolo[4,3-f]isoquinolin-6-yl)-3,5-difluorophenyl)piperidin-4-yl)methyl)piperazin-1-yl)-2-(2,6-dioxopiperidin-3-yl)isoindoline-1,3-dione] | 10 to 100 | 
6 | C[C@@H]1Cc2c(ccc3[nH]ncc23)[C@@H](c2ccc(N3CCC4(CC3)CC(CN3CCN5c6cc7c(cc6OC[C@@H]5C3)C(=O)N([C@@H]3CCC(=O)NC3=O)C7)C4)cn2)N1CC1(F)CC1 [Compound A12, (R)-3-((S)-3-((7-(6-((6S,8R)-7-((1-fluorocyclopropyl)methyl)-8-methyl-6,7,8,9-tetrahydro-3H-pyrazolo[4,3-f]isoquinolin-6-yl)pyridin-3-yl)-7-azaspiro[3.5]nonan-2-yl)methyl)-8-oxo-1,2,3,4,4a,5,8,10-octahydro-9H-pyrazino[1′,2′: 4,5][1,4]oxazino[2,3-f]isoindol-9-yl)piperidine-2,6-dione] |  | Dmax (ER [2]; MCF7, MCF-7 cells, read-out: ER MCF7 ICW Dmax (%)): > 75%; DC50 (ER [2]; MCF-7 cells, read-out: ER MCF7 ICW DC50): < 1 nM; DC50 (ER [3]): < 1 nM; Dmax (ER [3]; T47D, read-out: ER T47D ICW Dmax (%)): > 75%

Further lines, with some results ahead:

Row | DC50 (ER [1]) [nM] | SMILES | other results
7 | 10 to 100 | C[C@@H]1Cc2c(ccc3[nH]ncc23)[C@@H](c2ccc(C3CCC(C(=O)N4CCC(N5Cc6cc7c(cc6C5)C(=O)N(C5CCC(=O)NC5=O)C7=O)CC4)CC3)cn2)N1CC(F)(F)F (stereo partly drawn) [Compound B10, 2-(2,6-dioxopiperidin-3-yl)-6-(1-(4-(6-((6S,8R)-8-methyl-7-(2,2,2-trifluoroethyl)-6,7,8,9-tetrahydro-3H-pyrazolo[4,3-f]isoquinolin-6-yl)pyridin-3-yl)cyclohexane-1-carbonyl)piperidin-4-yl)-6,7-dihydropyrrolo[3,4-f]isoindole-1,3(2H,5H)-dione] | 
8 | < 10 | COc1c2c(cc3c1C(=O)N(C1CCC(=O)NC1=O)C3=O)CN(CC(=O)N1CCC3(CC1)CCN(c1cc(F)c([C@@H]4c5ccc6[nH]ncc6c5C[C@@H](C)N4CC(F)F)c(F)c1)CC3)C2 (stereo partly drawn) [Compound B17, 6-(2-(9-(4-((6S,8R)-7-(2,2-difluoroethyl)-8-methyl-6,7,8,9-tetrahydro-3H-pyrazolo[4,3-f]isoquinolin-6-yl)-3,5-diazaspiro[5.5]undecan-3-yl)-2-difluorophenyl)-3,9-oxoethyl)-2-(2,6-dioxopiperidin-3-yl)-4-methoxy-6,7-dihydropyrrolo[3,4-f]isoindole-1,3(2H,5H)-dione] | 
9 | < 10 | C[C@@H]1Cc2c(ccc3[nH]ncc23)[C@@H](c2c(F)cc(N3CCC(C(=O)N4CCC(N5Cc6cc7c(cc6C5)C(=O)N(C5CCC(=O)NC5=O)C7=O)CC4)CC3)cc2F)N1CC(F)F (stereo partly drawn) [Compound B6, 6-(1-(1-(4-((6S,8R)-7-(2,2-difluoroethyl)-8-methyl-6,7,8,9-tetrahydro-3H-pyrazolo[4,3-f]isoquinolin-6-yl)-3,5-difluorophenyl)piperidine-4-carbonyl)piperidin-4-yl)-2-(2,6-dioxopiperidin-3-yl)-6,7-dihydropyrrolo[3,4-f]isoindole-1,3(2H,5H)-dione] | 
10 | < 10 | C[C@@H]1Cc2c(ccc3[nH]ncc23)[C@@H](c2c(F)cc([C@H]3CC[C@H](C(=O)N4CCC(N5Cc6cc7c(cc6C5)C(=O)N(C5CCC(=O)NC5=O)C7=O)CC4)CC3)cc2F)N1CC(F)F (stereo partly drawn) [Compound B2, 6-(1-((1S,4r)-4-(4-((6S,8R)-7-(2,2-difluoroethyl)-8-methyl-6,7,8,9-tetrahydro-3H-pyrazolo[4,3-f]isoquinolin-6-yl)-3,5-difluorophenyl)cyclohexane-1-carbonyl)pipcridin-4-yl)-2-(2,6-dioxopiperidin-3-yl)-6,7-dihydropyrrolo[3,4-f]isoindole-1,3(2H,5H)-dione] | 
